What was measured:
lipoamide = compound: NC(=O)CCCCC1CCSS1 [lipoamide]; experiment: thermal stability z-score vs DMSO; higher = more thermally stabilized by treatment; details: HeLa, lipoamide concentration 100 µM
Method: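 Cellular thermal proteome profiling in HeLa cells. Cells were treated with 100 µM lipoamide for 1 h, with or without 1 mM arsenate for a further 1 h, then heated to ten temperatures (37-66.3 °C), and soluble protein was quantified by TMT mass spectrometry relative to 0.1% DMSO controls. The thermal stability score (sum of log2 fold changes minus the abundance score) was transformed to a z-score; mean of n = 3 experiments.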

potassium arsenate = compound: O=[As]([O-])(O)O.[K+] [potassium arsenate]; experiment: as above; details: HeLa; arsenate concentration 1 mM
Method: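 Cellular thermal proteome profiling in HeLa cells treated with 1 mM arsenate for 1 h (DMSO pretreatment), heated to ten temperatures (37-66.3 °C). Soluble protein was quantified by TMT mass spectrometry relative to DMSO controls; the thermal stability score was transformed to a z-score; mean of n = 3 experiments.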

[1] = arsenate co-treatment: 1 mM arsenate 1 h
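Also: each temperature applied for 3 min, abundance score taken as mean log2 fold change at the two lowest temperatures, z-score obtained by mean subtraction and division by SD.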

Sequence of UniProt Q9UBQ5 (Q9UBQ5 whole entry): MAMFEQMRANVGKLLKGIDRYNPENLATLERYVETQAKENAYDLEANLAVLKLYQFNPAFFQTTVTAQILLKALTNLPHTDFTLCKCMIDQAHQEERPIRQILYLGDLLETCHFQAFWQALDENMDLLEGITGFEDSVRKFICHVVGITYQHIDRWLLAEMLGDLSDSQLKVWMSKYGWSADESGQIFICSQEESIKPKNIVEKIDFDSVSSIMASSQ
Sequence of UniProt Q9UH92 (Q9UH92 whole entry): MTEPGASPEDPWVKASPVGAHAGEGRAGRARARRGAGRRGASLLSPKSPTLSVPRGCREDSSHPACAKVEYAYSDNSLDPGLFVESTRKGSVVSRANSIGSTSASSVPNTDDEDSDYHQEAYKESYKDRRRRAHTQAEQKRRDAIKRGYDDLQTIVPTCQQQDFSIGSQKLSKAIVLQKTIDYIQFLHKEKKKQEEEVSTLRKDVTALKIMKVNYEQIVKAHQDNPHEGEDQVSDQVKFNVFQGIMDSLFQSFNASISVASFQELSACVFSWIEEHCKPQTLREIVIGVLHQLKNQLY
Sequence of UniProt P30825 (P30825 whole entry): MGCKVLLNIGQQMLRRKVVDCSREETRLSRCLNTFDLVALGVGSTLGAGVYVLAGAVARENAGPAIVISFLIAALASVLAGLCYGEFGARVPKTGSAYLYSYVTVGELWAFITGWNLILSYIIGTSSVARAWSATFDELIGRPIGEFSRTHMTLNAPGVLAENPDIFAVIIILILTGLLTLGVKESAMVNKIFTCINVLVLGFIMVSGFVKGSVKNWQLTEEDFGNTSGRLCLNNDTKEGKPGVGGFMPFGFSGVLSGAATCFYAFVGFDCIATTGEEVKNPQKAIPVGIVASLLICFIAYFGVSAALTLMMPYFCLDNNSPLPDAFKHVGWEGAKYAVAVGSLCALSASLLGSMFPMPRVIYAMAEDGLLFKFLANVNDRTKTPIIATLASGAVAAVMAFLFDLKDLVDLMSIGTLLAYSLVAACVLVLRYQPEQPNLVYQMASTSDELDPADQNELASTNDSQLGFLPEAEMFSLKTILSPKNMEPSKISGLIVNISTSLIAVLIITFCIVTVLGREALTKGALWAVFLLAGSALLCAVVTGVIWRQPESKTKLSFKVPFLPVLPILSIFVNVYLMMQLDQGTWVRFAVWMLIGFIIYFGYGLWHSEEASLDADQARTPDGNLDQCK
Sequence of UniProt Q9H8V3 (Q9H8V3 whole entry): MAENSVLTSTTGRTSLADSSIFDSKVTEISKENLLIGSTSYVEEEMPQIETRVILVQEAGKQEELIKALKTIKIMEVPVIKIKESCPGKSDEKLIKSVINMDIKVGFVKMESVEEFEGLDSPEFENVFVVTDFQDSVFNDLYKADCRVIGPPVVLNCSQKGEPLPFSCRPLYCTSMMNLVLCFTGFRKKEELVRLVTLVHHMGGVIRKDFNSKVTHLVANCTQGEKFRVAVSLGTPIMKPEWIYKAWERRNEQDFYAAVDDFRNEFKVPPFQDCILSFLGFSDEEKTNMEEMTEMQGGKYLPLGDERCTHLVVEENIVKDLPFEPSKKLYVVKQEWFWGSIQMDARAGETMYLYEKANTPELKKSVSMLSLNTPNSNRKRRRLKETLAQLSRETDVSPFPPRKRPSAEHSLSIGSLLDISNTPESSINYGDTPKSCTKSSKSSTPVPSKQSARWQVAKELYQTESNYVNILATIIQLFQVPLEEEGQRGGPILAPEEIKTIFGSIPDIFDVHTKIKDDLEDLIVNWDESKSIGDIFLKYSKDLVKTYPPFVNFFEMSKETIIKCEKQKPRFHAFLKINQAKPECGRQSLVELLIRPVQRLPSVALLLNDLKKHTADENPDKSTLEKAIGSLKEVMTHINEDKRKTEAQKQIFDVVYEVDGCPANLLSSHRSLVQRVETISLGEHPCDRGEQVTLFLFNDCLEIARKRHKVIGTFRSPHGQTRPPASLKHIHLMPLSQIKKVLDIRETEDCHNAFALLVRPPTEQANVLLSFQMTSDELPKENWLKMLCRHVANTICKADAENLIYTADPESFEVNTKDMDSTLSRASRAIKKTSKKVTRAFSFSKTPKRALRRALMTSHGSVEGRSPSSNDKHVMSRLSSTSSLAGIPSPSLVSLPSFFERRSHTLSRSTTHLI
Sequence of UniProt Q8NEZ5 (Q8NEZ5 whole entry): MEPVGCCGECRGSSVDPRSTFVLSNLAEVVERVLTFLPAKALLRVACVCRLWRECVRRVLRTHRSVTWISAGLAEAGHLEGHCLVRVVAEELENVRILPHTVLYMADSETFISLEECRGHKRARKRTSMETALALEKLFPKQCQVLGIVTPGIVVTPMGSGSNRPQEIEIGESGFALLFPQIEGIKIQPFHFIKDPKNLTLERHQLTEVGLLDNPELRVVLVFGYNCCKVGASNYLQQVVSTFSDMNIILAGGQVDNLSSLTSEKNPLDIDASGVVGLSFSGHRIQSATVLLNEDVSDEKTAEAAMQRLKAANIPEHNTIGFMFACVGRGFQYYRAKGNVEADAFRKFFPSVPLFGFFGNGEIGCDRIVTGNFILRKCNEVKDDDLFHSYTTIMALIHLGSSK
Sequence of UniProt Q9P2T1 (Q9P2T1 whole entry): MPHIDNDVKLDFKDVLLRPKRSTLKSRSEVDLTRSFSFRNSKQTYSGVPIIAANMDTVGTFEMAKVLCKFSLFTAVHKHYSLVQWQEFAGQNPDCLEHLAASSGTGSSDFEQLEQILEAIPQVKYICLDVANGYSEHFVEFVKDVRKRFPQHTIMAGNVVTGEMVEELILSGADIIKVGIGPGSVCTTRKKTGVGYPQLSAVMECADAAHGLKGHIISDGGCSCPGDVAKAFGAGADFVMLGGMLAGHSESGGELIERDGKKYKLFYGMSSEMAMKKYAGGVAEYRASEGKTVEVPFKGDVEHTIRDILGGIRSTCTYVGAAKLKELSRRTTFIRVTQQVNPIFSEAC
Sequence of UniProt Q9UL63 (Q9UL63 whole entry): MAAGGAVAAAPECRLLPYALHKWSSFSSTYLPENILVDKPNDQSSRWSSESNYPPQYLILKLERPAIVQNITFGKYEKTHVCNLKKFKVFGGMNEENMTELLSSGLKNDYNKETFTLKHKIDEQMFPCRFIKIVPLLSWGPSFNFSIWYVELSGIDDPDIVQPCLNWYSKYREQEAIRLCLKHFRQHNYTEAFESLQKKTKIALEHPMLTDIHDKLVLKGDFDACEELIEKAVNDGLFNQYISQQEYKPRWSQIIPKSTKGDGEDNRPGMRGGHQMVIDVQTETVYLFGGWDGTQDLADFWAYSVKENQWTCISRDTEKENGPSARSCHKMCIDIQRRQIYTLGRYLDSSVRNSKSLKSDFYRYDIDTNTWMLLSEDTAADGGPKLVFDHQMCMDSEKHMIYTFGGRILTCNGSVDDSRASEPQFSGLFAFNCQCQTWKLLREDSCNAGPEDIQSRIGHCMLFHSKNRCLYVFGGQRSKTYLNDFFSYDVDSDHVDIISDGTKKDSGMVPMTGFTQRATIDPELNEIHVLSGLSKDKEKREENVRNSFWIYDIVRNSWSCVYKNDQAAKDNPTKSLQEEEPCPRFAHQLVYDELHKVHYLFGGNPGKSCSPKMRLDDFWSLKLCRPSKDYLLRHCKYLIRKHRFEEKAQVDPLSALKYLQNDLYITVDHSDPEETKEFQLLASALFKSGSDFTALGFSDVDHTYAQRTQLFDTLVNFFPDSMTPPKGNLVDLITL
Sequence of UniProt P35244 (P35244 whole entry): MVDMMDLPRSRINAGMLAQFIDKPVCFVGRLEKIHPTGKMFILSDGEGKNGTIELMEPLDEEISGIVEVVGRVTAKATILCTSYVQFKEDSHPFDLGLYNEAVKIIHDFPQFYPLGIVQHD
Sequence of UniProt Q9UNN5 (Q9UNN5 whole entry): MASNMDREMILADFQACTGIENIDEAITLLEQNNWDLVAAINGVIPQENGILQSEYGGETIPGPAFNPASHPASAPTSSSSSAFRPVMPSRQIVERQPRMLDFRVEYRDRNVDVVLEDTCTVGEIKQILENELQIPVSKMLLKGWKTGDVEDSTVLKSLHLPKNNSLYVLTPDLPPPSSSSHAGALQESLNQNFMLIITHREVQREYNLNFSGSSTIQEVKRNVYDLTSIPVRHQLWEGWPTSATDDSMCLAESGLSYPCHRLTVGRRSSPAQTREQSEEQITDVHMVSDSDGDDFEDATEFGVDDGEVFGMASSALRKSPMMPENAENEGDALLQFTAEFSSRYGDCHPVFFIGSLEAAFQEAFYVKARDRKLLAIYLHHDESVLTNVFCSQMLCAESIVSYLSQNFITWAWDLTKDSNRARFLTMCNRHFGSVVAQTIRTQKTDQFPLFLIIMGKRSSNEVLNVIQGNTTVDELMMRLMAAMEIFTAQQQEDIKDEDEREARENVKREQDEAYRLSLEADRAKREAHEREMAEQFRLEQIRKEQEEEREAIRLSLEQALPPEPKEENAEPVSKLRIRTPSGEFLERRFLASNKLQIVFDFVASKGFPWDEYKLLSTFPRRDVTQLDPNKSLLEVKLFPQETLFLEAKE
Sequence of UniProt P56556 (P56556 whole entry): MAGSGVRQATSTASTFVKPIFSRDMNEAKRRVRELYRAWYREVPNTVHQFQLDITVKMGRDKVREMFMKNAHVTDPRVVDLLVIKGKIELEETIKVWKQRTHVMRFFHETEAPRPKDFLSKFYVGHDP
Sequence of UniProt P51665 (P51665 whole entry): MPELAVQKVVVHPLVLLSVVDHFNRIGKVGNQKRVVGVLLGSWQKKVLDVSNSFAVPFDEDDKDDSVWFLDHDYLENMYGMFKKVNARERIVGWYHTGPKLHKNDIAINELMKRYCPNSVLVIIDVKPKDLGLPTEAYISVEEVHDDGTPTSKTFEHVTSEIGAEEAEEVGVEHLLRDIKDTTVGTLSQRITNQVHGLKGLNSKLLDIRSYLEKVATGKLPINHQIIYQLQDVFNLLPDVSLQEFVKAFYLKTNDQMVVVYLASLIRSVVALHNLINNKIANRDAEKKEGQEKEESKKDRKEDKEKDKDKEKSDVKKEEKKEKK
Sequence of UniProt Q7Z422 (Q7Z422 whole entry): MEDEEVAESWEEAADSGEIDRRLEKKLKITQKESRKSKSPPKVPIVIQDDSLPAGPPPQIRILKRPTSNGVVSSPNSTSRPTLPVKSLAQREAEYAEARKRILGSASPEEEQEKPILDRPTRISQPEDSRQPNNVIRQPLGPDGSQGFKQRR

Target	thermal stability z-score (lipoamide; [1])	thermal stability z-score (lipoamide; arsenate co-treatment: none)	thermal stability z-score (potassium arsenate)
FBXO22 (UniProt Q8NEZ5)	0.0761	-0.0297	-0.412
SOD2 (UniProt P04179)	0.512	0.261	0.195
TH1L|NELFCD	-0.0628	-0.0836	0.0938
GMPR2 (UniProt Q9P2T1)	0.37	0.368	0.121
COPA (UniProt P53621)	-0.0346	0.0865	0.594
TRIM47 (UniProt Q96LD4)	-0.148	-0.0936	0.944
NUDCD2 (UniProt Q8WVJ2)	0.599	0.779	0.58
PDCD6IP (UniProt Q8WUM4)	1.3	1.06	2.4
DYNC2H1 (UniProt Q8NCM8)	-0.15	-0.28	-0.209
COG2 (UniProt Q14746)	0.0711	-0.137	0.6
POP1 (UniProt Q99575)	-0.557	-0.523	-0.401
QSER1 (UniProt Q2KHR3)	-0.147	-0.0194	0.0737
PIN4 (UniProt Q9Y237)	0.199	-0.0862	-0.422
SLC17A5 (UniProt Q9NRA2)	0.265	0.076	-0.982
TRIM26 (UniProt Q12899)	-0.368	-0.0684	0.295
C9ORF40 (UniProt Q8IXQ3)	-0.129	0.33	0.0372
FAM114A1 (UniProt Q8IWE2)	-0.474	-0.338	0.106
NDUFA6 (UniProt P56556)	-0.164	-0.00891	0.505

Target	thermal stability z-score (lipoamide; [1])	thermal stability z-score (lipoamide; arsenate co-treatment: none)	thermal stability z-score (potassium arsenate)
GLT8D1 (UniProt Q68CQ7)	-0.426	-0.593	0.145
PDK2 (UniProt Q15119)	0.292	0.0166	0.0862
EIF3K (UniProt Q9UBQ5)	-0.353	0.0198	0.00475
AP1M1 (UniProt Q9BXS5)	0.126	-0.43	0.791
SLC7A1 (UniProt P30825)	0.364	-0.194	-0.33
SZRD1 (UniProt Q7Z422)	0.289	0.399	-0.0744
ECT2 (UniProt Q9H8V3)	-0.0726	-0.00204	-0.475
NRDE2 (UniProt Q9H7Z3)	0.0849	0.0451	-0.184
HIST1H4A (UniProt P62805)	0.954	0.814	2.61
MLX (UniProt Q9UH92)	-0.0303	-0.272	0.0805
FAF1 (UniProt Q9UNN5)	0.777	0.869	0.738
VASP (UniProt P50552)	0.564	0.923	-0.33
ADSS (UniProt P30520)	0.449	-0.203	-1.32
VPS13A (UniProt Q96RL7)	1.04	0.949	0.945
MRPL51 (UniProt Q4U2R6)	-0.114	0.334	-0.0101
PSMD7 (UniProt P51665)	-0.802	-0.0777	-0.475
MKLN1 (UniProt Q9UL63)	-0.128	-0.114	-0.403
RPA3 (UniProt P35244)	0.313	0.624	0.872
